This passage reports Activity results from ChEMBL document CHEMBL3769305, “Glucose-functionalized amino-OPEs as biocompatible photosensitizers in PDT” (Eur J Med Chem, 2016).

The nature of this data set: Induction of singlet-oxygen generation at 5 x 10^-5 M irradiated at 380 nm by uric acid degradation assay. The class given is physicochemical. The conditions noted are these: 0.38 µM.

`COc1cc(C#Cc2cc(OC)c(C#Cc3cc(OC)c(C#CCO[C@@H]4O[C@H](CO)[C@@H](O)[C@H](O)[C@H]4O)cc3OC)cc2OC)c(OC)cc1C#CCO[C@@H]1O[C@H](CO)[C@@H](O)[C@H](O)[C@H]1O`: the Activity result was “Not Active”.
